Results published in PMC12207370, “Macrocyclic Peptide Probes for Immunomodulatory Protein CD59: Potent Modulators of Bacterial Toxin Activity and Antibody‐Dependent Cytotoxicity” (Angewandte Chemie (International Ed. in English), 2025).
Peptide text beside a SMILES is read from it.

molecular target: T1, CD59 (Homo sapiens, UniProt P13987); assay: SPR (Biacore S200) binding to immobilised biotinylated CD59; conditions: Ala scan of CP-06, SPR, n = 1; read-out: KD
T1 construct: Recombinant soluble human CD59 with an additional C-terminal cysteine residue
T1 sequence (P13987 26-102 limits assumed): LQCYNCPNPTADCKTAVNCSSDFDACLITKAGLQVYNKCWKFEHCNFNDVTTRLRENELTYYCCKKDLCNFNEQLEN
Text: To identify which of these peptides bound CD59 most tightly, we used a Biacore S200 surface plasmon resonance (SPR) platform to investigate CD59 affinity (Figure 2b), using a known protein binding partner of CD59 (rILYd4) as a benchmark. Four 13‐mer macrocyclic peptides and one 14‐mer macrocyclic peptide were identified with a dissociation constant (K D) lower than that of rILYd4. Considering their fourfold lower molecular weight, these peptides bind with up to 19‐fold greater efficiency compared to rILYd4 (Figure 2b).
Equipment: SPR analysis was performed on a Cytiva Biacore S200. All buffers were prepared using ultra-pure water from a Millipore Elix Q-Gard purification system. Solutions and buffers were filtered with a 0.22 μm filter and degassed prior to use. The assays were performed on Series S streptavidin (SA) sensor chip (Cytiva). PBS-P+ buffer 10X (0.2 M phosphate buffer with 27 mM KCl, 1.37 M NaCl and 0.5% Surfactant P20 (Tween 20)) was used for the preparation of the assay running buffer (PBS-P+ 1X).
Immobilisation of CD59-biotin: Biotinylated CD59 was immobilised on the surface of a SA chip by non-covalent capture (biotin streptavidin interaction) as per the manufacturer’s instructions. The system was initially primed with running buffer and normalised using BIAnormalizing solution (70% (w/w) glycerol) (Cytiva). Before immobilising the protein, the surface was conditioned with three consecutive one-minute injections of 1 M NaCl in 50 mM NaOH. Biotinylated CD59 (0.5 µg/mL in running buffer) was flowed over the protein (active) channel for different contact times to achieve different immobilisation levels (600–1200 RU). After each protein injection, the needle and injection loop were washed using 50% isopropanol in 1 M NaCl and 50 mM NaOH. A reference channel was prepared by similar treatment; however, running buffer alone rather than CD59-biotin in running buffer was flowed over the chip the same way.
Interaction analysis: Multicycle kinetic and affinity approach was used for the analysis of peptides interactions with CD59. Two-fold serial dilutions of each peptide were prepared in running buffer and were flowed over both the ligand and reference channel using a flow rate (30 μL/min) at 25 °C. A zero concentration was added to each analyte series and three cycles of buffer were run between analytes to restore the baseline. The obtained sensorgrams were analysed using the embedded Biacore S200 Evaluation software. The data were normalised by subtracting RU values of the reference channel and zero concentration of the analyte series. Kinetic rate constants (kon and koff) were determined by fitting the normalised data using the built-in Kinetic analysis model (non-linear regression with a 1:1 Langmuir binding model), KD values were then calculated from the two rate constants ([…]). The KD values were determined again by fitting the normalised data using the built-in Affinity analysis model (1:1 Langmuir binding model).

SMILES | Kd [nM]
CC(C)[C@@H]1NC(=O)[C@H](CO)NC(=O)[C@H](CO)NC(=O)[C@H](CCCNC(=N)N)NC(=O)[C@H](CC(N)=O)NC(=O)[C@H](C)NC(=O)[C@H](Cc2c[nH]c3ccccc23)NC(=O)[C@H]([C@@H](C)O)NC(=O)[C@H](Cc2c[nH]c3ccccc23)NC(=O)[C@H](CO)NC(=O)[C@@H](Cc2ccc(O)cc2)NC(=O)CSC[C@@H](C(N)=O)NC(=O)CNC(=O)[C@H](CCCNC(=N)N)NC1=O [CP-06-G6A] (HELM PEPTIDE1{[O=C(C[*:3])[*:2]].[dY].S.W.T.W.A.N.R.S.S.V.R.G.C.[am]}$PEPTIDE1,PEPTIDE1,1:R3-15:R3$$$V2.0) | 235
CC(C)[C@@H]1NC(=O)[C@H](CO)NC(=O)[C@H](CO)NC(=O)[C@H](CCCNC(=N)N)NC(=O)[C@H](CC(N)=O)NC(=O)CNC(=O)[C@H](Cc2c[nH]c3ccccc23)NC(=O)[C@H]([C@@H](C)O)NC(=O)[C@H](Cc2c[nH]c3ccccc23)NC(=O)[C@H](CO)NC(=O)[C@@H](Cc2ccc(O)cc2)NC(=O)CSC[C@@H](C(N)=O)NC(=O)[C@H](C)NC(=O)[C@H](CCCNC(=N)N)NC1=O [CP-06-G13A] (HELM PEPTIDE1{[O=C(C[*:3])[*:2]].[dY].S.W.T.W.G.N.R.S.S.V.R.A.C.[am]}$PEPTIDE1,PEPTIDE1,1:R3-15:R3$$$V2.0) | 678
CC(C)[C@@H]1NC(=O)[C@H](CO)NC(=O)[C@H](CO)NC(=O)[C@H](CCCNC(=N)N)NC(=O)[C@H](C)NC(=O)CNC(=O)[C@H](Cc2c[nH]c3ccccc23)NC(=O)[C@H]([C@@H](C)O)NC(=O)[C@H](Cc2c[nH]c3ccccc23)NC(=O)[C@H](CO)NC(=O)[C@@H](Cc2ccc(O)cc2)NC(=O)CSC[C@@H](C(N)=O)NC(=O)CNC(=O)[C@H](CCCNC(=N)N)NC1=O [CP-06-N7A] (HELM PEPTIDE1{[O=C(C[*:3])[*:2]].[dY].S.W.T.W.G.A.R.S.S.V.R.G.C.[am]}$PEPTIDE1,PEPTIDE1,1:R3-15:R3$$$V2.0) | 209
CC(C)[C@@H]1NC(=O)[C@H](CO)NC(=O)[C@H](CO)NC(=O)[C@H](C)NC(=O)[C@H](CC(N)=O)NC(=O)CNC(=O)[C@H](Cc2c[nH]c3ccccc23)NC(=O)[C@H]([C@@H](C)O)NC(=O)[C@H](Cc2c[nH]c3ccccc23)NC(=O)[C@H](CO)NC(=O)[C@@H](Cc2ccc(O)cc2)NC(=O)CSC[C@@H](C(N)=O)NC(=O)CNC(=O)[C@H](CCCNC(=N)N)NC1=O [CP-06-R8A] (HELM PEPTIDE1{[O=C(C[*:3])[*:2]].[dY].S.W.T.W.G.N.A.S.S.V.R.G.C.[am]}$PEPTIDE1,PEPTIDE1,1:R3-15:R3$$$V2.0) | 18
CC(C)[C@@H]1NC(=O)[C@H](CO)NC(=O)[C@H](CO)NC(=O)[C@H](CCCNC(=N)N)NC(=O)[C@H](CC(N)=O)NC(=O)CNC(=O)[C@H](Cc2c[nH]c3ccccc23)NC(=O)[C@H]([C@@H](C)O)NC(=O)[C@H](Cc2c[nH]c3ccccc23)NC(=O)[C@H](CO)NC(=O)[C@@H](Cc2ccc(O)cc2)NC(=O)CSC[C@@H](C(N)=O)NC(=O)CNC(=O)[C@H](C)NC1=O [CP-06-R12A] (HELM PEPTIDE1{[O=C(C[*:3])[*:2]].[dY].S.W.T.W.G.N.R.S.S.V.A.G.C.[am]}$PEPTIDE1,PEPTIDE1,1:R3-15:R3$$$V2.0) | 97
CC(C)[C@@H]1NC(=O)[C@H](CO)NC(=O)[C@H](CO)NC(=O)[C@H](CCCNC(=N)N)NC(=O)[C@H](CC(N)=O)NC(=O)CNC(=O)[C@H](Cc2c[nH]c3ccccc23)NC(=O)[C@H]([C@@H](C)O)NC(=O)[C@H](Cc2c[nH]c3ccccc23)NC(=O)[C@H](C)NC(=O)[C@@H](Cc2ccc(O)cc2)NC(=O)CSC[C@@H](C(N)=O)NC(=O)CNC(=O)[C@H](CCCNC(=N)N)NC1=O [CP-06-S2A] (HELM PEPTIDE1{[O=C(C[*:3])[*:2]].[dY].A.W.T.W.G.N.R.S.S.V.R.G.C.[am]}$PEPTIDE1,PEPTIDE1,1:R3-15:R3$$$V2.0) | 13
CC(C)[C@@H]1NC(=O)[C@H](CO)NC(=O)[C@H](C)NC(=O)[C@H](CCCNC(=N)N)NC(=O)[C@H](CC(N)=O)NC(=O)CNC(=O)[C@H](Cc2c[nH]c3ccccc23)NC(=O)[C@H]([C@@H](C)O)NC(=O)[C@H](Cc2c[nH]c3ccccc23)NC(=O)[C@H](CO)NC(=O)[C@@H](Cc2ccc(O)cc2)NC(=O)CSC[C@@H](C(N)=O)NC(=O)CNC(=O)[C@H](CCCNC(=N)N)NC1=O [CP-06-S9A] (HELM PEPTIDE1{[O=C(C[*:3])[*:2]].[dY].S.W.T.W.G.N.R.A.S.V.R.G.C.[am]}$PEPTIDE1,PEPTIDE1,1:R3-15:R3$$$V2.0) | 22
CC(C)[C@@H]1NC(=O)[C@H](C)NC(=O)[C@H](CO)NC(=O)[C@H](CCCNC(=N)N)NC(=O)[C@H](CC(N)=O)NC(=O)CNC(=O)[C@H](Cc2c[nH]c3ccccc23)NC(=O)[C@H]([C@@H](C)O)NC(=O)[C@H](Cc2c[nH]c3ccccc23)NC(=O)[C@H](CO)NC(=O)[C@@H](Cc2ccc(O)cc2)NC(=O)CSC[C@@H](C(N)=O)NC(=O)CNC(=O)[C@H](CCCNC(=N)N)NC1=O [CP-06-S10A] (HELM PEPTIDE1{[O=C(C[*:3])[*:2]].[dY].S.W.T.W.G.N.R.S.A.V.R.G.C.[am]}$PEPTIDE1,PEPTIDE1,1:R3-15:R3$$$V2.0) | 12
CC(C)[C@@H]1NC(=O)[C@H](CO)NC(=O)[C@H](CO)NC(=O)[C@H](CCCNC(=N)N)NC(=O)[C@H](CC(N)=O)NC(=O)CNC(=O)[C@H](Cc2c[nH]c3ccccc23)NC(=O)[C@H](C)NC(=O)[C@H](Cc2c[nH]c3ccccc23)NC(=O)[C@H](CO)NC(=O)[C@@H](Cc2ccc(O)cc2)NC(=O)CSC[C@@H](C(N)=O)NC(=O)CNC(=O)[C@H](CCCNC(=N)N)NC1=O [CP-06-T4A] (HELM PEPTIDE1{[O=C(C[*:3])[*:2]].[dY].S.W.A.W.G.N.R.S.S.V.R.G.C.[am]}$PEPTIDE1,PEPTIDE1,1:R3-15:R3$$$V2.0) | 18
CC(C)[C@@H]1NC(=O)[C@H](CO)NC(=O)[C@H](CO)NC(=O)[C@H](CCCNC(=N)N)NC(=O)[C@H](CC(N)=O)NC(=O)CNC(=O)[C@H](Cc2c[nH]c3ccccc23)NC(=O)[C@H]([C@@H](C)O)NC(=O)[C@H](C)NC(=O)[C@H](CO)NC(=O)[C@@H](Cc2ccc(O)cc2)NC(=O)CSC[C@@H](C(N)=O)NC(=O)CNC(=O)[C@H](CCCNC(=N)N)NC1=O [CP-06-W3A] (HELM PEPTIDE1{[O=C(C[*:3])[*:2]].[dY].S.A.T.W.G.N.R.S.S.V.R.G.C.[am]}$PEPTIDE1,PEPTIDE1,1:R3-15:R3$$$V2.0) | 1200

same assay, conditions: Ala scan of CP-06, SPR, n = 1; read-out: PKD (converted)

SMILES | Kd [nM]
C[C@@H]1NC(=O)[C@H](CO)NC(=O)[C@H](CO)NC(=O)[C@H](CCCNC(=N)N)NC(=O)[C@H](CC(N)=O)NC(=O)CNC(=O)[C@H](Cc2c[nH]c3ccccc23)NC(=O)[C@H]([C@@H](C)O)NC(=O)[C@H](Cc2c[nH]c3ccccc23)NC(=O)[C@H](CO)NC(=O)[C@@H](Cc2ccc(O)cc2)NC(=O)CSC[C@@H](C(N)=O)NC(=O)CNC(=O)[C@H](CCCNC(=N)N)NC1=O [CP-06-V11A] (HELM PEPTIDE1{[O=C(C[*:3])[*:2]].[dY].S.W.T.W.G.N.R.S.S.A.R.G.C.[am]}$PEPTIDE1,PEPTIDE1,1:R3-15:R3$$$V2.0) | 30.2

same assay, conditions: SPR, Figure S2T; read-out: KD

SMILES | Kd [nM]
CC(C)[C@@H]1NC(=O)[C@H](CO)NC(=O)[C@H](CO)NC(=O)[C@H](CCCNC(=N)N)NC(=O)[C@H](CC(N)=O)NC(=O)CNC(=O)[C@H](Cc2c[nH]c3ccccc23)NC(=O)[C@H]([C@@H](C)O)NC(=O)[C@H](Cc2c[nH]c3ccccc23)NC(=O)[C@H](CO)NC(=O)[C@@H](Cc2ccc(O)cc2)NC(=O)CSC[C@@H](C(=O)NCC(=O)N[C@@H](CO)C(=O)NCC(=O)N[C@@H](CO)C(=O)NCC(=O)N[C@@H](CO)C(=O)N[C@@H](CCCCN)C(N)=O)NC(=O)CNC(=O)[C@H](CCCNC(=N)N)NC1=O [CP-06-GSGSGSK] (HELM PEPTIDE1{[O=C(C[*:3])[*:2]].[dY].S.W.T.W.G.N.R.S.S.V.R.G.C.G.S.G.S.G.S.K.[am]}$PEPTIDE1,PEPTIDE1,1:R3-15:R3$$$V2.0) | 18

same assay, conditions: SPR, immobilized CD59, average of three technical replicates ± SEM; read-out: KD (nM) ± SEM

SMILES | Kd [nM]
CC(C)[C@@H]1NC(=O)[C@H](Cc2c[nH]cn2)NC(=O)[C@@H](Cc2ccc(O)cc2)NC(=O)CSC[C@@H](C(N)=O)NC(=O)CNC(=O)[C@H](CCCNC(=N)N)NC(=O)[C@H]([C@@H](C)O)NC(=O)[C@H](Cc2ccccc2)NC(=O)[C@H](CO)NC(=O)[C@H](CCCNC(=N)N)NC(=O)[C@H](CC(N)=O)NC(=O)CNC(=O)[C@H](Cc2ccccc2)NC1=O [CP-04] (HELM PEPTIDE1{[O=C(C[*:3])[*:2]].[dY].H.V.F.G.N.R.S.F.T.R.G.C.[am]}$PEPTIDE1,PEPTIDE1,1:R3-14:R3$$$V2.0) | 11.9 ± 0.3
